The values that follow come from patent publication US12410160B2 (Gilead Sciences, Inc., priority 2021, dated 2025).

The structures appear in SMILES notation.

One assay deals with human KHK-A (Homo sapiens (Human), UniProt P50053). Put plainly: KHK Biochemical Assay (IC50), ADP-Glo, KHK-A. The following applies: average of at least two separate assays. Put shortly: (§1)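 Luminescent ADP-Glo read-out of ADP made by His-tagged KHK (BL21 (DE3) expression, Ni-NTA). Enzyme and compound sat together 30 min before ATP/fructose addition, then reacted 4 h at RT in Hepes pH 7.4 buffer with KCl, MgCl2, Triton-X. Quench 1 h, detection 1 h.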
Chain of human KHK-A (P50053 other isoform, or with tags, fused parts or gaps): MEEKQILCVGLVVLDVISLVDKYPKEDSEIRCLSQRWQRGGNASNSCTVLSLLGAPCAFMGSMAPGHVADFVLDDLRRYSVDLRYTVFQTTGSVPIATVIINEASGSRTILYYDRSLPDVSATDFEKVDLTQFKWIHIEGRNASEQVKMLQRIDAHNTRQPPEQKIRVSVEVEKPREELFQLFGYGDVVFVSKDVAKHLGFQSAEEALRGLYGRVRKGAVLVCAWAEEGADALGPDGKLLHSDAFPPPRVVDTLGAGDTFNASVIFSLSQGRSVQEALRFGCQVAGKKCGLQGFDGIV
On the technique in general: In ADP-Glo the light output rises with the ADP produced.

The next assay addresses human KHK-C (Homo sapiens (Human), UniProt P50053). Put plainly: KHK Biochemical Assay (IC50), ADP-Glo, KHK-C. The note with it: average of at least two separate assays. Put shortly:
as §1

Chain of human KHK-C (P50053 whole entry): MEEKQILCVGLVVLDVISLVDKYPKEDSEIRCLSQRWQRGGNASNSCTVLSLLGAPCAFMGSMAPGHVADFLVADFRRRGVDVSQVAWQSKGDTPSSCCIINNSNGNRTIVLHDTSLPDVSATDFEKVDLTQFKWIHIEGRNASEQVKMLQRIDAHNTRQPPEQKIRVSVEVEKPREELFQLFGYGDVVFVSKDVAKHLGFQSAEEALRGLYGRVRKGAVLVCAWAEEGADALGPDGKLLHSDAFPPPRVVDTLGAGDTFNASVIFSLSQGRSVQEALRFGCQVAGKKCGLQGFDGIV

For the compound `C[C@H]1CCN1c1nc2c(c(-c3ccc4nc(C(F)(F)F)[nH]c4c3)n1)CCC2` [Example 241, 6-[2-[(2S)-2-methylazetidin-1-yl]-6,7-dihydro-5H-cyclopenta[d]pyrimidin-4-yl]-2-(trifluoromethyl)-1H-benzimidazole], the concentration for half-maximal inhibition (IC50) (in general, the midpoint of a concentration-inhibition curve) was found to be 803 nM at human KHK-A (ADP-Glo) and 1070 nM against human KHK-C (ADP-Glo).
With `C[C@H]1CCN1c1nc2c(c(-c3ccc(C(=O)Nc4ccccc4)cc3)n1)CCC2` [Example 296, (S)-4-(2-(2-methylazetidin-1-yl)-6,7-dihydro-5H-cyclopenta[d]pyrimidin-4-yl)-N-phenylbenzamide], the results for the IC50 against human KHK-A (ADP-Glo) and against human KHK-C (ADP-Glo) were 2090 nM and 3000 nM, respectively.
As to `O=C1NC(=O)C2(COc3cc(-c4nc(N5CC[C@@H]5C(F)(F)F)nc5c4CCC5(F)F)ccc32)N1` (stereo partly drawn) [Example 703, 6-[7,7-difluoro-2-[(2R)-2-(trifluoromethyl)azetidin-1-yl]-5,6-dihydrocyclopenta[d]pyrimidin-4-yl]spiro[2H-benzofuran-3,5′-imidazolidine]-2′,4′-dione], the IC50 on human KHK-A was found to be 1 nM; at human KHK-C, 0.4 nM.
Take `C[C@H]1[C@H](O)CN1c1nc(-c2ccc3c(c2)C(F)(F)C[C@@H]3NS(C)(=O)=O)c2c(n1)C(F)(F)CC2` (single isomer, unassigned) [Example 634]: the IC50 at human KHK-A came to 10.8 nM; against human KHK-C, 0.9 nM.
Turning to `C[C@H]1CCN1c1nc2c(c(-c3ccc4c(c3)CC(C(F)(F)F)C4NS(C)(=O)=O)n1)CCC2` (stereo partly drawn) [Example 893, N-(5-(2-((S)-2-methylazetidin-1-yl)-6,7-dihydro-5H-cyclopenta[d]pyrimidin-4-yl)-2-(trifluoromethyl)-2,3-dihydro-1H-inden-1-yl)methanesulfonamide], the IC50 came to 1780 nM at human KHK-A (ADP-Glo) and 733 nM against human KHK-C (ADP-Glo).
For the compound `C[C@H]1CCN1c1nc2c(c(-c3ccc(S(=N)(N)=O)cc3)n1)CCC2` (stereo partly drawn) [Example 874, 4-(2-((S)-2-methylazetidin-1-yl)-6,7-dihydro-5H-cyclopenta[d]pyrimidin-4-yl)benzenesulfonimidamide], the IC50 came out at 88.4 nM against human KHK-A (ADP-Glo) and 72.3 nM against human KHK-C (ADP-Glo).
In the case of `C[C@H]1CCN1c1nc2c(c(-c3cnccn3)n1)CCC2` [Example 344, 2-[(2S)-2-methylazetidin-1-yl]-4-pyrazin-2-yl-6,7-dihydro-5H-cyclopenta[d]pyrimidine], the IC50 against human KHK-A (ADP-Glo) was found to be 175 nM; against human KHK-C (ADP-Glo), 224 nM.
The like results for `C[C@H]1CCN1c1nc2c(c(-c3ccc4c(c3)N(C)C(=O)CNC4)n1)CCC2` [Example 856, (S)-1-methyl-8-(2-(2-methylazetidin-1-yl)-6,7-dihydro-5H-cyclopenta[d]pyrimidin-4-yl)-1,3,4,5-tetrahydro-2H-benzo[e][1,4]diazepin-2-one] were, in that order, 143 nM and 175 nM.
Consider `C[C@H]1CCN1c1nc2c(c(-c3ccc4[nH]nc(C(F)(F)F)c4c3)n1)CCC2` [Example 243, 5-[2-[(2S)-2-methylazetidin-1-yl]-6,7-dihydro-5H-cyclopenta[d]pyrimidin-4-yl]-3-(trifluoromethyl)-1H-indazole], for which the IC50 against human KHK-A (ADP-Glo) and against human KHK-C (ADP-Glo) was above 5000 nM each time.
`C[C@H]1CCN1c1nc2c(c(-c3cccc(C(=O)N4CC(CC(=O)O)C4)c3)n1)CCC2` [Example 69, (S)-2-(1-(3-(2-(2-methylazetidin-1-yl)-6,7-dihydro-5H-cyclopenta[d]pyrimidin-4-yl)benzoyl)azetidin-3-yl)acetic acid]: the results for the IC50 against human KHK-A (ADP-Glo) and against human KHK-C (ADP-Glo) were 286 nM and 145 nM, respectively.
The like results for `C[C@H]1CCN1c1nc2c(c(-c3ccc4c(c3)CCCCC4NS(C)(=O)=O)n1)CCC2` (stereo partly drawn) [Example 854, N-(2-(2-((S)-2-methylazetidin-1-yl)-6,7-dihydro-5H-cyclopenta[d]pyrimidin-4-yl)-6,7,8,9-tetrahydro-5H-benzo[7]annulen-5-yl)methanesulfonamide] were, in that order, 543 nM and 442 nM.
In the case of `C[C@H]1CCN1c1nc2c(c(-c3cccc(S(=N)(=O)c4ccc(C#N)cc4)c3)n1)CCC2` (stereo partly drawn) [Example 879, 4-(3-(2-((S)-2-methylazetidin-1-yl)-6,7-dihydro-5H-cyclopenta[d]pyrimidin-4-yl)phenylsulfonimidoyl)benzonitrile], the IC50 worked out at 41.6 nM against human KHK-A (ADP-Glo) and 46.7 nM at human KHK-C (ADP-Glo).
For `CC(C)N1C(=O)NC2(COc3cc(-c4nc(N5C[C@@H](O)[C@@H]5C)nc5c4CCC5(F)F)ccc32)C1=O` (some centres unmarked) [Example 690], the values for the IC50 against human KHK-A and at human KHK-C were 45.4 nM and 0.3 nM, respectively.
Turning to `C[C@H]1[C@H](O)CN1c1nc2c(c(-c3cccc([C@H]4C[C@@H]4C(=O)O)c3)n1)CCC2` (single isomer, unassigned) [Example 113], the results for the IC50 against human KHK-A (ADP-Glo) and at human KHK-C (ADP-Glo) were 18.2 nM and 13.2 nM, respectively.
The like results for `C[C@H]1CCN1c1nc2c(c(-c3ccc(CN(C)C)cc3)n1)CCC2` [Example 368, N,N-dimethyl-1-[4-[2-[(2S)-2-methylazetidin-1-yl]-6,7-dihydro-5H-cyclopenta[d]pyrimidin-4-yl]phenyl]methanamine] were, in that order, 38.3 nM and 20 nM.
`C[C@H]1CCN1c1nc2c(c(-c3ccc4c(c3)CCNC4C(F)(F)F)n1)CCC2` (stereo partly drawn) [Example 859, 6-(2-((S)-2-methylazetidin-1-yl)-6,7-dihydro-5H-cyclopenta[d]pyrimidin-4-yl)-1-(trifluoromethyl)-1,2,3,4-tetrahydroisoquinoline]: the IC50 came out at 434 nM on human KHK-A (ADP-Glo) and 301 nM at human KHK-C (ADP-Glo).
As for `C[C@H]1CCN1c1nc2c(c(-c3ccc4c(c3)[nH]c(=O)n4C)n1)CCC2` [Example 452, 3-methyl-6-[2-[(2S)-2-methylazetidin-1-yl]-6,7-dihydro-5H-cyclopenta[d]pyrimidin-4-yl]-1H-benzimidazol-2-one], the IC50 on human KHK-A worked out at 103 nM; on human KHK-C, 68.3 nM.
`C[C@H]1CCN1c1nc2c(c(-c3cccs3)n1)CCC2` [Example 45, (S)-2-(2-methylazetidin-1-yl)-4-(thiophen-2-yl)-6,7-dihydro-5H-cyclopenta[d]pyrimidine]: the IC50 against human KHK-A (ADP-Glo) is 118 nM; against human KHK-C (ADP-Glo), 108 nM.
Turning to `CC1CCc2nc(N3CC[C@@H]3C)nc(-c3ccccc3)c21` (stereo partly drawn) [Example 339, 5-methyl-2-[(2S)-2-methylazetidin-1-yl]-4-phenyl-6,7-dihydro-5H-cyclopenta[d]pyrimidine], the IC50 was determined as 1900 nM against human KHK-A (ADP-Glo) and 2220 nM against human KHK-C (ADP-Glo).
As to `NC1(c2ccc(-c3nc(N4CC[C@@H]4C(F)(F)F)nc4c3CCC4(F)F)s2)COC1` [Example 896, (R)-3-(5-(7,7-difluoro-2-(2-(trifluoromethyl)azetidin-1-yl)-6,7-dihydro-5H-cyclopenta[d]pyrimidin-4-yl)thiophen-2-yl)oxetan-3-amine], the IC50 is 2.1 nM against human KHK-A (ADP-Glo) and 1.7 nM against human KHK-C (ADP-Glo).
On to `C[C@H]1[C@H](O)CN1c1nc(-c2ccc3c(c2)OCC32COCC(=O)N2)c2c(n1)C(F)(F)CC2` (stereo partly drawn) [Example 497, 6-(7,7-difluoro-2-((2S,3R)-3-hydroxy-2-methylazetidin-1-yl)-6,7-dihydro-5H-cyclopenta[d]pyrimidin-4-yl)-2H-spiro[benzofuran-3,3′-morpholin]-5′-one], for which the figures for the IC50 on human KHK-A and at human KHK-C were 2.2 nM and 0.1 nM, respectively.
On to `CCC1Oc2cc(-c3nc(N4CC[C@@H]4C)nc4c3CCC4)ccc2C1NS(C)(=O)=O` (stereo partly drawn) [Example 884, N-(2-ethyl-6-(2-((S)-2-methylazetidin-1-yl)-6,7-dihydro-5H-cyclopenta[d]pyrimidin-4-yl)-2,3-dihydrobenzofuran-3-yl)methanesulfonamide], for which the IC50 against human KHK-A (ADP-Glo) was 96.2 nM; against human KHK-C (ADP-Glo), 46.1 nM.
Turning to `C[C@H]1CCN1c1nc2c(c(-c3cccc(S(=N)(=O)CC(=O)N4CCC4)c3)n1)CCC2` (stereo partly drawn) [Example 877, (2-(azetidin-1-yl)-2-oxoethyl)(imino)(3-(2-((S)-2-methylazetidin-1-yl)-6,7-dihydro-5H-cyclopenta[d]pyrimidin-4-yl)phenyl)-λ^6-sulfanone], the IC50 on human KHK-A (ADP-Glo) was 186 nM; against human KHK-C (ADP-Glo) it was 208 nM.
As to `c1ccc(-c2nc(C3CNC3)nc3c2CCC3)cc1` [Example 99, 2-(azetidin-3-yl)-4-phenyl-6,7-dihydro-5H-cyclopenta[d]pyrimidine], the IC50 on human KHK-A (ADP-Glo) and on human KHK-C (ADP-Glo) was above 5000 nM throughout.
Turning to `c1ccc(-c2nc(C3CC3)nc3c2CCC3)cc1` [Example 96, 2-cyclopropyl-4-phenyl-6,7-dihydro-5H-cyclopenta[d]pyrimidine], the 50% inhibitory concentration (IC50) was 4660 nM on human KHK-A (ADP-Glo) and above 5000 nM at human KHK-C (ADP-Glo).
Regarding `C[C@H]1[C@H](F)CN1c1nc(-c2ccc3c(c2)COC[C@@H]3NS(C)(=O)=O)c2c(n1)C(F)(F)CC2` [Example 582, N—((R)-7-(7,7-difluoro-2-((2S,3R)-3-fluoro-2-methylazetidin-1-yl)-6,7-dihydro-5H-cyclopenta[d]pyrimidin-4-yl)isochroman-4-yl)methanesulfonamide], the IC50 on human KHK-A came to 7 nM; on human KHK-C, 0.8 nM.
Regarding `C[C@H]1CCN1c1nc2c(c(-c3ccc4c(c3)C(NS(C)(=O)=O)CCO4)n1)CCC2` (stereo partly drawn) [Example 883, N-(6-(2-((S)-2-methylazetidin-1-yl)-6,7-dihydro-5H-cyclopenta[d]pyrimidin-4-yl)chroman-4-yl)methanesulfonamide], the IC50 was found to be 21 nM on human KHK-A (ADP-Glo) and 14.6 nM at human KHK-C (ADP-Glo).
As to `COC[C@H]1CCN1c1nc(-c2ccc(C3(N)COC3)cc2)c2c(n1)C(F)(F)CC2` [Example 569, (R)-3-(4-(7,7-difluoro-2-(2-(methoxymethyl)azetidin-1-yl)-6,7-dihydro-5H-cyclopenta[d]pyrimidin-4-yl)phenyl)oxetan-3-amine], the IC50 is 43 nM against human KHK-A and 15.2 nM against human KHK-C.
